Data reported in patent US8673908B2, “Kynurenine production inhibitor” (Kyowa Hakko Kirin Co., Ltd., priority 2008, dated 2014).

Tested on: kynurenine production in IFN-γ-treated KATO-III cells
Test: Inhibitory activity on kynurenine production (Test Example 1)
Format: cell-based
Conditions: Homo sapiens, IFN-γ treatment, culture for 96 hours, read-out: IC50 value, inhibition of kynurenine production
Method: This assay was performed according to a method modified from the method described in the Journal of Biological Chemistry (J. Biol. Chem.), vol. 263, pp. 2041-2048 (1988). Culture of KATO-III derived from human gastric cancer cells was performed by use of RPMI 1640 (GIBCO, 11875) supplemented with 10 vol % FBS (GIBCO, 10091-148, lot. 665285). 1 μL of a DMSO solution of the test substance was diluted with 199 μL of the culture medium, and the diluted solution was added to wells of a 384 well plate (10 μL/well). Then, IFN-γ (Sigma, 1-3265) was added to the culture medium so that the concentration of IFN-γ was 31.25 ng/mL, and the KATO-III cells were suspended at 50,000 cells/ml, in the culture medium. 40 μL of the suspension was added to each well (2,000 cells/well), and culture of the KATO-III cells was performed at 37° C. under a 5% CO2 atmosphere for 96 hours. The final concentration of DMSO was limited to 0.1 vol % or less so that DMSO itself might not affect the kynurenine concentration measured by this assay. After the culture, 10 μL of a 30 w/v % aqueous trichloroacetic acid solution was added to each well, and incubation was performed at 65° C. for 30 minutes. The plate was centrifuged at 2,500×g for 5 minutes, and then 15 μL of the supernatant in each well was transferred into another 384 well plate. To each of the transferred supernatants, 15 μL of a 2 w/v % solution of p-dimethylaminobenzaldehyde in acetic acid was added, incubation was performed at 65° C. for 20 minutes, and then the absorbance at 480 nm was measured.
[formula] Sample: the absorbance value of the well to which a DMSO solution containing the test substance was added and in which cells were treated with IFN-γ. Blank: the absorbance value of the well to which only DMSO, not the test substance was added and in which cells were treated with IFN-γ. Control: the absorbance value of the well to which only DMSO, not the test substance was added and in which cells were not treated with IFN-γ.
In this assay, expression of IDO in KATO-III cells is induced by IFN-γ treatment and then kynurenine in the culture medium is quantified. It is known that the kynurenine concentration in a culture medium increases in proportion to the enzymatic activity of intracellular IDO (for example, the Journal of Biological Chemistry (J. Biol. Chem.), vol. 263, pp. 2041-2048 (1988)). […] It is known that kynurenine production is inhibited by IDO inhibitors (for example, the Journal of Clinical Investigation (J. Clin. Invest.), vol. 117, No. 5, pp. 1147-1154 […]), and thus it is expected that Compound (I) also has an inhibitory effect on IDO.

`COc1ccc(COc2nc(Cl)cnc2NS(=O)(=O)c2cccc(Cl)c2Cl)cc1` [Compound 2] and `O=S(=O)(Nc1ncc(Cl)nc1OCc1ccc2ccccc2c1)c1cccc(Cl)c1Cl` [Compound 3] fall in the same range of IC50: 1000 to 10000 nM for the first, 1000 to 10000 nM for the second.

Compared with `COc1ccc(COc2nc3cccnc3nc2NS(=O)(=O)c2cccc(Cl)c2Cl)cc1` [Compound 5], `O=S(=O)(Nc1nc2ccccc2nc1OCc1ccc2ncccc2c1)c1cccc(Cl)c1Cl` [Compound 24, 2,3-dichloro-N-{3-[(quinolin-6-yl)methoxy]quinoxalin-2-yl}-benzenesulfonamide] is lower in IC50: 1000 to 10000 nM for the first, less than 1000 nM for the second. The second is the more potent here.

`O=S(=O)(Nc1nc2ccccc2nc1OCc1cccnc1)c1cccc(Cl)c1Cl` [Compound 6, 2,3-dichloro-N-{3-[(pyridin-3-yl)methoxy]quinoxalin-2-yl}-benzenesulfonamide] and `O=S(=O)(Nc1nc2ccccc2nc1OCc1ccncc1)c1cccc(Cl)c1Cl` [Compound 26, 2,3-dichloro-N-{3-[(pyridin-4-yl)methoxy]quinoxalin-2-yl}-benzenesulfonamide] fall in the same range of IC50: 1000 to 10000 nM for the first, 1000 to 10000 nM for the second.

`O=S(=O)(Nc1nc2ccccc2nc1OCc1ccc2ccccc2c1)c1cccc(Cl)c1Cl` [Compound 10, 2,3-dichloro-N-{3-[(2-naphthyl)methoxy]quinoxalin-2-yl}-benzenesulfonamide] and `O=S(=O)(Nc1nc2ccccc2nc1OCc1ccc2ccccc2c1)c1c(Cl)cccc1Cl` [Compound 27, 2,6-dichloro-N-{3-[(2-naphthyl)methoxy]quinoxalin-2-yl}-benzenesulfonamide] cannot be ordered by IC50: less than 1000 nM for the first, less than 1000 nM for the second.

`O=S(=O)(Nc1nc2ccccc2nc1OCc1ccc2ccccc2c1)c1cccc2ccccc12` [Compound 11, N-{3-[(2-naphthyl)methoxy]quinoxalin-2-yl}-1-naphthalenesulfonamide] and `O=S(=O)(Nc1nc2ccccc2nc1OCc1ccc2ccccc2c1)c1ccccc1C(F)(F)F` [Compound 21, 2-(trifluoromethyl)-N-{3-[(2-naphthyl)methoxy]quinoxalin-2-yl}benzenesulfonamide] cannot be ordered by IC50: less than 1000 nM for the first, less than 1000 nM for the second.

First: Cc1ccc(S(=O)(=O)Nc2nc3ccccc3nc2OCc2ccc3ccccc3c2)cc1 [Compound 13, N-{3-[(2-naphthyl)methoxy]quinoxalin-2-yl}-4-toluenesulfonamide]
Second: O=S(=O)(Nc1nc2ccccc2nc1OCc1ccc2ccccc2c1)c1ccc(C(F)(F)F)cc1 [Compound 23, 4-(trifluoromethyl)-N-{3-[(2-naphthyl)methoxy]quinoxalin-2-yl}benzenesulfonamide]
The IC50 of the first is higher: 1000 to 10000 nM for the first, less than 1000 nM for the second. The second is the more potent here.

First: O=S(=O)(Nc1nc2ccccc2nc1OCc1ccc2ccccc2c1)c1cc(Cl)cc(Cl)c1 [Compound 15, 3,5-dichloro-N-{3-[(2-naphthyl)methoxy]quinoxalin-2-yl}-benzenesulfonamide]
Second: O=S(=O)(Nc1nc2ccccc2nc1OCc1ccc2ccccc2c1)c1ccc(Cl)c(Cl)c1 [Compound 30, 3,4-dichloro-N-{3-[(2-naphthyl)methoxy]quinoxalin-2-yl}-benzenesulfonamide]
The IC50 of the first is lower: less than 1000 nM for the first, 1000 to 10000 nM for the second.

First: O=S(=O)(Nc1nc2ccccc2nc1OCc1cccc(C(F)(F)F)c1)c1cccc(Cl)c1Cl [Compound 18, 2,3-dichloro-N-{3-[(3-trifluoromethylphenyl)methoxy]-quinoxalin-2-yl}benzenesulfonamide]
Second: O=S(=O)(Nc1nc2ccccc2nc1OCc1ccccc1)c1cccc(Cl)c1Cl [Compound 32, 2,3-dichloro-N-(3-benzyloxyquinoxalin-2-yl)benzenesulfonamide]
The IC50 of the first is lower: less than 1000 nM for the first, 1000 to 10000 nM for the second. The first is the more potent here.

`O=S(=O)(Nc1nc2ccccc2nc1OCc1ccc2ccccc2c1)c1cccc(C(F)(F)F)c1` [Compound 22, 3-(trifluoromethyl)-N-{3-[(2-naphthyl)methoxy]quinoxalin-2-yl}benzenesulfonamide] and `O=S(=O)(Nc1nc2ccccc2nc1OCc1ccc2ccccc2c1)c1cc(Cl)ccc1Cl` [Compound 28, 2,5-dichloro-N-{3-[(2-naphthyl)methoxy]quinoxalin-2-yl}-benzenesulfonamide] cannot be ordered by IC50: less than 1000 nM for the first, less than 1000 nM for the second.

`O=S(=O)(Nc1nc2ccccc2nc1OCc1ccc2ccccc2c1)c1ccc(Cl)cc1Cl` [Compound 29, 2,4-dichloro-N-{3-[(2-naphthyl)methoxy]quinoxalin-2-yl}-benzenesulfonamide] and `COc1ccc(C(Oc2nc3ccccc3nc2NS(=O)(=O)c2ccccc2Cl)C(F)(F)F)cc1` (stereo not drawn) [Compound 40, 2-chloro-N-{3-[2,2,2-trifluoro-1-(4-methoxyphenyl)ethoxy]-quinoxalin-2-yl}benzenesulfonamide] cannot be ordered by IC50: less than 1000 nM for the first, less than 1000 nM for the second.

`CCC(Oc1nc2ccccc2nc1NS(=O)(=O)c1cccc(Cl)c1Cl)c1cccnc1` (stereo not drawn) [Compound 31, 2,3-dichloro-N-{3-[1-(pyridin-3-yl)propoxy]quinoxalin-2-yl}benzenesulfonamide] and `CC(C)C(Oc1nc2ccccc2nc1NS(=O)(=O)c1cccc(Cl)c1Cl)c1cccnc1` (stereo not drawn) [Compound 34, 2,3-dichloro-N-{3-[2-methyl-1-(pyridin-3-yl)propoxy]-quinoxalin-2-yl}benzenesulfonamide] cannot be ordered by IC50: less than 1000 nM for the first, less than 1000 nM for the second.

`O=S(=O)(Nc1nc2ccccc2nc1OC(c1ccc(C(F)(F)F)cc1)C(F)(F)F)c1ccccc1C(F)(F)F` (stereo not drawn) [Compound 35, 2-(trifluoromethyl)-N-{3-[2,2,2-trifluoro-1-(4-trifluoromethylphenyl)ethoxy]quinoxalin-2-yl}benzenesulfonamide] and `O=S(=O)(Nc1nc2ccccc2nc1OC(c1ccc(C(F)(F)F)cc1)C(F)(F)F)c1cccc(Cl)c1Cl` (stereo not drawn) [Compound 36, 2,3-dichloro-N-{3-[2,2,2-trifluoro-1-(4-trifluoromethyl-phenyl)ethoxy]quinoxalin-2-yl}benzenesulfonamide] cannot be ordered by IC50: less than 1000 nM for the first, less than 1000 nM for the second.

`CC(C)(C)C(Oc1nc2ccccc2nc1NS(=O)(=O)c1cccc(Cl)c1Cl)c1cccnc1` (stereo not drawn) [Compound 37, 2,3-dichloro-N-{3-[2,2-dimethyl-1-(pyridin-3-yl)propoxy]-quinoxalin-2-yl}benzenesulfonamide] and `CC(C)(F)C(Oc1nc2ccccc2nc1NS(=O)(=O)c1cccc(Cl)c1Cl)c1cccnc1` (stereo not drawn) [Compound 39, 2,3-dichloro-N-{3-[2-fluoro-2-methyl-1-(pyridin-3-yl)-propoxy]quinoxalin-2-yl}benzenesulfonamide] cannot be ordered by IC50: less than 1000 nM for the first, less than 1000 nM for the second.

`Cc1ccc(C(Oc2nc3ccccc3nc2NS(=O)(=O)c2ccccc2Cl)C(F)(F)F)cn1` (stereo not drawn) [Compound 41, 2-chloro-N-{3-[2,2,2-trifluoro-1-(6-methylpyridin-3-yl)-ethoxy]quinoxalin-2-yl}benzenesulfonamide] and `O=S(=O)(Nc1nc2ccccc2nc1OC(c1ccncc1)C(F)(F)F)c1ccccc1Cl` (stereo not drawn) [Compound 49, 2-chloro-N-{3-[2,2,2-trifluoro-1-(pyridin-4-yl)ethoxy]quinoxalin-2-yl}benzenesulfonamide] cannot be ordered by IC50: less than 1000 nM for the first, less than 1000 nM for the second.

`N#Cc1ccc(C(Oc2nc3ccccc3nc2NS(=O)(=O)c2ccccc2Cl)C(F)(F)F)cc1` (stereo not drawn) [Compound 42, 2-chloro-N-{3-[2,2,2-trifluoro-1-(4-cyanophenyl)ethoxy]-quinoxalin-2-yl}benzenesulfonamide] and `O=S(=O)(Nc1nc2ccccc2nc1OC(c1ccccc1)C(F)(F)F)c1ccccc1Cl` (stereo not drawn) [Compound 44, 2-chloro-N-[3-(2,2,2-trifluoro-1-phenylethoxy)quinoxalin-2-yl]benzenesulfonamide] cannot be ordered by IC50: less than 1000 nM for the first, less than 1000 nM for the second.

`COC(=O)C(Oc1nc2ccccc2nc1NS(=O)(=O)c1cccc(Cl)c1Cl)c1ccc(C(F)(F)F)cc1` (stereo not drawn) [Compound 43, 2,3-dichloro-N-{3-{methoxycarbonyl[4-(trifluoromethyl)-phenyl]methoxy}quinoxalin-2-yl}benzenesulfonamide] and `O=S(=O)(Nc1nc2ccccc2nc1OC(c1cccnc1)C(F)(F)C(F)(F)F)c1cccc(Cl)c1Cl` (stereo not drawn) [Compound 46, 2,3-dichloro-N-{3-[3,3,3,2,2-pentafluoro-1-(pyridin-3-yl)-propoxy]quinoxalin-2-yl}benzenesulfonamide] cannot be ordered by IC50: less than 1000 nM for the first, less than 1000 nM for the second.

Work on `O=S(=O)(Nc1nc2ccccc2nc1OC(c1ccccn1)C(F)(F)F)c1ccccc1Cl` (stereo not drawn) [Compound 48, 2-chloro-N-{3-[2,2,2-trifluoro-1-(pyridin-2-yl)ethoxy]-quinoxalin-2-yl}benzenesulfonamide] yielded an IC50 of less than 1000 nM.
